Results from patent US11578084B2, “Condensed ring compounds having dopamine D3 receptor antagonistic effect” (Shionogi & Co., Ltd., priority 2018, dated 2023).
Read-outs that look alike come from different tables or passages of the source.

Legend:
[1] = molecular target: human recombinant dopamine D3 receptor (Homo sapiens (Human), UniProt P35462); test: Test of binding inhibition for dopamine D3 receptor ([3H]-Methylspiperone SPA); details: Jump-In HEK cell membranes, 2 nM [3H]-Methylspiperone, 120 min at 25° C.; read-out: hD3_Ki
Sequence of human recombinant dopamine D3 receptor (P35462 whole entry): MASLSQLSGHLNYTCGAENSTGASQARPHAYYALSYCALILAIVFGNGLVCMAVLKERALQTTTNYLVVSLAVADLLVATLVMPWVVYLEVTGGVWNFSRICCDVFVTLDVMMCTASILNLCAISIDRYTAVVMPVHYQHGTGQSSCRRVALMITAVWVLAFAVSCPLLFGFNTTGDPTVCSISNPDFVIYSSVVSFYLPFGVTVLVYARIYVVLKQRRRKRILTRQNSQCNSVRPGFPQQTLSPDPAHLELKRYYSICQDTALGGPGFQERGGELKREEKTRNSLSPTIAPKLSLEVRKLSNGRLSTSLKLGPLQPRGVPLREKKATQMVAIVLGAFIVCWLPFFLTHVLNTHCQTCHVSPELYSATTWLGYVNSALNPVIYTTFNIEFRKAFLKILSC
Procedure: (§1) (Experimental Conditions)
Cell membranes: Jump-In HEK cell membranes expressing human recombinant dopamine D3 receptor (4 μg/well)
(§2) Non-specific ligand: (final concentration) 10 μM Butaclamol [(+)-Butaclamol Hydrochloride, D033, Sigma]
(§3) SPA beads solution: SPA beads [WGA PVT SPA Scintillation Beads, RPNQ0001 (500 mg), RPNQ0060 (2 g), PerkinElmer] (0.2 mg/well)
(§4) Incubation time and temperature: 120 min at 25° C.
(§5) Butaclamol or the compounds of the present invention were weighed and DMSO was added to make a 10 mM solution. This solution was diluted to each concentration.
[^3H]-Methylspiperone was weighed and the buffer solution was added to make a 6 nM solution.
(§6) SPA beads were weighed and stirred in water to make a 50 mg/mL solution. Using this solution, a mixture with the cell membranes was prepared.
(§7) Jump-In HEK Cell membranes (final reaction amount: 4 μg protein/well), the SPA beads solution (final reaction amount: 0.2 mg/well) and the buffer solution were mixed and the mixed solution was left still for 1 hour or more at 4° C. Then, 50 μL of the mixture was added to each well of the plate. In addition, 25 μL of 6 nM [^3H]-Methylspiperone (final concentration: 2 nM) was added to each well. […] Non-specific binding was calculated based on the radioactivity of [^3H]-Methylspiperone in the presence of 10 μM non-labeled Butaclamol. The total binding was calculated using the radioactivity of [H]-Methylspiperone in the absence of the compounds of the present invention (vehicle). The Ki values were calculated from dose-response curves.
(§8) Binding activities of the compounds of the present invention were calculated from the following Binding Inhibition Rate (%): Inhibition Rate (%)=[1−(c−a)/(b−a)]×100 • a: Average cpm of non-specific binding • b: Average cpm of total binding • c: Cpm in the presence of each test compound

[2] = molecular target: human recombinant dopamine D2 receptor (Homo sapiens (Human), UniProt P14416); test: Test of binding inhibition for dopamine D2 receptor ([3H]-Methylspiperone SPA); details: Jump-In HEK cell membranes, read-out: hD2_Ki
Sequence of human recombinant dopamine D2 receptor (P14416 whole entry): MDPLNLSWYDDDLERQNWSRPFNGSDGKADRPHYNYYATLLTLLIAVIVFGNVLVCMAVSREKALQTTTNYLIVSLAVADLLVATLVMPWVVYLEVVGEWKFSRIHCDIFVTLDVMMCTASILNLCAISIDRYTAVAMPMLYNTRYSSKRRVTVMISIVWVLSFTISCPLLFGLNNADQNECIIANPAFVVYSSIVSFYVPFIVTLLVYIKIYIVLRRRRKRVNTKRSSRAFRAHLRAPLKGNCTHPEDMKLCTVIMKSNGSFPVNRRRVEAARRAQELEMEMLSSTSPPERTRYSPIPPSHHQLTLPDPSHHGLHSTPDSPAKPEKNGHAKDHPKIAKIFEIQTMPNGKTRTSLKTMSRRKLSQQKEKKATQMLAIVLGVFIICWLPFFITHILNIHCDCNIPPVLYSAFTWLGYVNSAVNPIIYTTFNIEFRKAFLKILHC
Procedure: as §1
Cell membranes: Jump-In HEK cell membranes expressing human recombinant dopamine D2 receptor (2 μg/well)
as §2, §3, §4, §5, §6
as §7, with “amount: 2” for “amount: 4”, “were mixed,” for “were mixed”, “plate.” for “plate. In addition, 25 μL of 6 nM [^3H]-Methylspiperone (final concentration: 2 nM) was added to each well.”, “of [^3H]-Methylspiperone” for “of [H]-Methylspiperone”, “invention (Vehicle).” for “invention (vehicle).”
as §8

hERG channel (IKr) = hERG channel (IKr) (Homo sapiens (Human), UniProt Q12809); test: hERG test (whole cell patch clamp, IKr); assay type: cell-based; details: human, CHO cells expressing hERG channel, pH 7.4, 3 μM, tail peak current
Sequence of hERG channel (IKr) (Q12809 whole entry): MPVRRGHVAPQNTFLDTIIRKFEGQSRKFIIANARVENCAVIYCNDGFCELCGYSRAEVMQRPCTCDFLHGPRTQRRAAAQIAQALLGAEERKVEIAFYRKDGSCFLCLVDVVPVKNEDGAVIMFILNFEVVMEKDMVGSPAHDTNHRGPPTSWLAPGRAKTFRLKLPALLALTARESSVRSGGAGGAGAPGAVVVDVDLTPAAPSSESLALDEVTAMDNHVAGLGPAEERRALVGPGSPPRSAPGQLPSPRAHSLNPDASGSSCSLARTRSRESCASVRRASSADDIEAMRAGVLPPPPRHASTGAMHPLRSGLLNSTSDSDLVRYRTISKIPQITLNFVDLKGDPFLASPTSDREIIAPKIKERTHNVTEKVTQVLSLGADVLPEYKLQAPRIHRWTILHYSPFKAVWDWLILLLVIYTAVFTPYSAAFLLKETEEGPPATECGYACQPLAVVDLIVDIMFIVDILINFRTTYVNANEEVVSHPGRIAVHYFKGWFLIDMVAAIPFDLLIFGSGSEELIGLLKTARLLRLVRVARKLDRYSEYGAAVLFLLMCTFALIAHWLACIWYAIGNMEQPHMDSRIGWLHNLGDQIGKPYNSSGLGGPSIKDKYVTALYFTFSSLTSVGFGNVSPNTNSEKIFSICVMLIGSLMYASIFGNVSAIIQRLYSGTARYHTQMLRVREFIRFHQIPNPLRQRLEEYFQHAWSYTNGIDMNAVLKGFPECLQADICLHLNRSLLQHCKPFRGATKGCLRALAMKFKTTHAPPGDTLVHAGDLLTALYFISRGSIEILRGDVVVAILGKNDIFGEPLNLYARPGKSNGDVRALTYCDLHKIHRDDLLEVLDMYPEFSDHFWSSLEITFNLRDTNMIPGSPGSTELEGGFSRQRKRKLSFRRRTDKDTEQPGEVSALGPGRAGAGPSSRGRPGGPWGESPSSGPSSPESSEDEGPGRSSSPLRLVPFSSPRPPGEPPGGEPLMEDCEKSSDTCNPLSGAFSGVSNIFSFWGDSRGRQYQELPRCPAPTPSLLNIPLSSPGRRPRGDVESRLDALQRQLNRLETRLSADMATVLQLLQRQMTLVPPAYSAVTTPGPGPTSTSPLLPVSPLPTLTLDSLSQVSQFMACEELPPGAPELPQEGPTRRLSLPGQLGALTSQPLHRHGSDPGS
Excerpt: Test Example 10: hERG Test
For the purpose of assessing risk of an electrocardiogram QT interval prolongation of the compound of the present invention, effects of the compound of the present invention on delayed rectifier K+ current (IKr), which plays an important role in the ventricular repolarization process, was studied using CHO cells expressing human ether-a-go-go related gene (hERG) channel.
After a cell was retained at a membrane potential of −80 mV by whole cell patch clamp method using an automated patch clamp system (QPatch; Sophion Bioscience A/S) and gave a leak potential of −50 mV, IKr induced by depolarization pulse stimulation at +20 mV for 2 seconds and, further, repolarization pulse stimulation at −50 mV for 2 seconds, was recorded. After the generated current was stabilized, extracellular solution (NaCl: 145 mmol/L, KCl: 4 mmol/L, CaCl2): 2 mmol/L, MgCl2: 1 mmol/L, glucose: 10 mmol/L, HEPES (4-(2-hydroxyethyl)-1-piperazineethanesulfonic acid): 10 mmol/L, pH=7.4), in which the compound of the present invention had been dissolved at an objective concentration in the extracellular solution, was applied to the cell at room temperature for 7 minutes or more. From the recording IKr, an absolute value of the tail peak current was measured based on the current value at the resting membrane potential using analysis software (QPatch Assay software; Sophion Bioscience A/S). Further, the % inhibition of tail peak current for the compound of the present invention relative to the tail peak current after application of the solution (0.1% dimethyl sulfoxide solution) was calculated to assess influence of the compound of the present invention on IKr.

[3] = 1.2 nM [3H]-Methylspiperone, 120 min at 25° C.

Compound | Ki [1] | Ki [2, 3] | inhibition at 3 µM (hERG channel (IKr)) | Ki ([2]; [3H]-Methylspiperone 1.2 nM)
COC(CN1CCc2ccc(OCC(F)(F)F)nc2CC1)[C@H]1CC[C@H](NC(=O)Cc2cnc(C)o2)CC1 (single isomer, unassigned) [Example I-045] | 0.81 nM | 1700 nM | 18.3% | 
COC(CN1CCc2sc(OCC(C)(F)F)nc2C1)C1CC2(CC(NC(=O)c3cccc4nn(C)cc34)C2)C1 (single isomer, unassigned) [Example I-047] | 0.058 nM | 110 nM | 13.6% | 
Cn1cc2c(C(=O)N[C@H]3CC4(C3)C[C@](F)(CCN3CCc5nc(OCC(F)(F)F)sc5CC3)C4)cccc2n1 (single isomer, unassigned) [Example I-049] | 0.33 nM | 310 nM | 36.8% | 
CC(Oc1nc2c(s1)CCN(CC[C@H]1CC[C@H](NC(=O)c3cccc4nn(C)cc34)CC1)CC2)C(F)F (single isomer, unassigned) [Example I-112] | 0.12 nM | > 2200 nM | 23.5% | 
Cc1ncc(CC(=O)N[C@H]2CC[C@H](CCN3CCc4sc(OC5CC(F)(F)C5)nc4C3)CC2)o1 [Example I-002] | 0.47 nM |  | 30.3% | 
Cc1ncc(CC(=O)N[C@H]2CC[C@H](CCN3CCc4ccc(CCC(F)(F)F)nc4CC3)CC2)cn1 [I′-16] | 0.36 nM |  |  | 1800 nM
Cc1cc(CC(=O)N[C@H]2CC[C@H](CCN3CCc4ccc(CCC(F)(F)F)nc4CC3)CC2)on1 [I′-17] | 0.15 nM |  |  | > 2300 nM
Cn1cc(CC(=O)N[C@H]2CC[C@H](CCN3CCc4ccc(CCC(F)(F)F)nc4CC3)CC2)c(F)n1 [I′-18] | 0.38 nM |  |  | 1000 nM
Cn1ncc(CC(=O)N[C@H]2CC[C@H](CCN3CCc4ccc(CCC(F)(F)F)nc4CC3)CC2)c1F [I′-19] | 0.36 nM |  |  | 1100 nM
Cc1ncc(/C=C/C(=O)N[C@H]2CC[C@H](CCN3CCc4ccc(CCC(F)(F)F)nc4CC3)CC2)cn1 [I′-20] | 0.38 nM |  |  | 260 nM
Cc1cc(CC(=O)N[C@H]2CC[C@H](CCN3CCc4ccc(CCC(F)(F)F)nc4CC3)CC2)no1 [I′-21] | 1 nM |  |  | > 2300 nM
Cn1ncc(CC(=O)N[C@H]2CC[C@H](CCN3CCc4nc(OCC(F)(F)F)sc4CC3)CC2)c1F [I′-22] | 0.1 nM |  |  | 2000 nM
Cn1ncc(CC(=O)N[C@H]2CC[C@](F)(CCN3CCc4nc(OCC(F)(F)F)sc4CC3)CC2)c1F [I′-23] | 0.28 nM |  |  | > 2200 nM
Cn1cc(CC(=O)N[C@H]2CC[C@H](CCN3CCc4nc(OCC(F)(F)F)sc4CC3)CC2)c(F)n1 [I′-24] | 0.17 nM |  |  | 630 nM
Cn1cc(CC(=O)N[C@H]2CC[C@](F)(CCN3CCc4nc(OCC(F)(F)F)sc4CC3)CC2)c(F)n1 [I′-25] | 0.29 nM |  |  | 730 nM
Cn1ncc(CC(=O)N[C@H]2CC[C@H](CCN3CCc4nc(OCC(C)(F)F)sc4CC3)CC2)c1F [I′-26] | 0.17 nM |  |  | 870 nM
Cn1cc(CC(=O)N[C@H]2CC[C@H](CCN3CCc4nc(OCC(C)(F)F)sc4CC3)CC2)c(F)n1 [I′-27] | 0.09 nM |  |  | > 2200 nM
Cn1ncc(CC(=O)N[C@H]2CC[C@H](CCN3CCc4nc(OCC(F)F)sc4CC3)CC2)c1F [I′-28] | 0.21 nM |  |  | 1500 nM
Cn1ncc(CC(=O)N[C@H]2CC[C@](F)(CCN3CCc4nc(OCC(F)F)sc4CC3)CC2)c1F [I′-29] | 3.1 nM |  |  | > 2200 nM
Cn1cc(CC(=O)N[C@H]2CC[C@H](CCN3CCc4nc(OCC(F)F)sc4CC3)CC2)c(F)n1 [I′-30] | 0.19 nM |  |  | 1600 nM
Cn1cc(CC(=O)N[C@H]2CC[C@](F)(CCN3CCc4nc(OCC(F)F)sc4CC3)CC2)c(F)n1 [I′-31] | 0.57 nM |  |  | 1300 nM

Compound | Ki [1] | Ki [2, 3] | inhibition at 3 µM (hERG channel (IKr)) | Ki ([2]; [3H]-Methylspiperone 1.2 nM)
Cn1cc(CC(=O)N[C@H]2CC[C@H](CCN3CCc4ccc(OCC(F)F)nc4CC3)CC2)c(F)n1 [I′-32] | 0.16 nM |  |  | 1200 nM
Cn1ncc(CC(=O)N[C@H]2CC[C@H](CCN3CCc4ccc(OCC(F)F)nc4CC3)CC2)c1F [I′-33] | 0.85 nM |  |  | 1600 nM
Cn1ncc(CC(=O)N[C@H]2CC[C@](F)(CCN3CCc4ccc(OCC(F)F)nc4CC3)CC2)c1F [I′-35] | 0.41 nM |  |  | 1800 nM
Cn1ncc(CC(=O)N[C@H]2CC[C@H](CCN3CCc4nc(OCC(F)(F)F)sc4CC3)CC2)n1 [I′-36] | 0.071 nM |  |  | 740 nM
Cn1ncc(CC(=O)N[C@H]2CC[C@H](CCN3CCc4nc(OCC(F)F)sc4CC3)CC2)n1 [I′-40] | 0.19 nM |  |  | 1900 nM
Cn1ncc(CC(=O)N[C@H]2CC[C@H](CCN3CCc4ccc(OCC(C)(F)F)nc4CC3)CC2)n1 [I′-42] | 0.016 nM |  |  | 500 nM
Cn1ncc(CC(=O)N[C@H]2CC[C@](F)(CCN3CCc4ccc(OCC(F)(F)F)nc4CC3)CC2)n1 [I′-43] | 0.078 nM |  |  | 350 nM
Cn1ncc(CC(=O)N[C@H]2CC[C@H](CCN3CCc4ccc(OCC(F)F)nc4CC3)CC2)n1 [I′-44] | 0.11 nM |  |  | 2000 nM
Cc1ncc(/C=C/C(=O)N[C@H]2CC[C@H](CCN3CCc4sc(C5CC(F)(F)C5)nc4C3)CC2)cn1 [I′-45] | 0.11 nM |  |  | 210 nM
Cc1ncc(OCC(=O)N[C@H]2CC[C@](F)(CCN3CCc4ccc(OCC(C)(F)F)nc4CC3)CC2)cn1 [I′-46] | 0.33 nM |  |  | 260 nM
Cc1ncc(/C=C/C(=O)N[C@H]2CC[C@](F)(CCN3CCc4ccc(OCC(C)(F)F)nc4CC3)CC2)cn1 [I′-47] | 0.081 nM |  |  | 41 nM
Cc1ncc(/C=C/C(=O)N[C@H]2CC[C@](F)(CCN3CCc4nc(OCC(F)(F)F)sc4CC3)CC2)cn1 [I′-48] | 0.27 nM |  |  | > 2200 nM
Cn1c(C(=O)N[C@H]2CC[C@](F)(CCN3CCc4nc(OCC(F)(F)F)sc4CC3)CC2)cccc1=O [I′-49] | 0.59 nM |  |  | 290 nM
Cc1nc(CC(=O)N[C@H]2CC[C@](F)(CCN3CCc4nc(OCC(F)(F)F)sc4CC3)CC2)nn1C [I′-50] | 0.23 nM |  |  | 1600 nM
Cc1ncc(CC(=O)N[C@H]2CC[C@](F)(CCN3CCc4nc(OCC(F)(F)F)sc4CC3)CC2)cn1 [I′-51] | 0.48 nM |  |  | 890 nM
Cc1cnc(OCC(=O)N[C@H]2CC[C@](F)(CCN3CCc4nc(OCC(F)(F)F)sc4CC3)CC2)cn1 [I′-52] | 0.17 nM |  |  | > 2200 nM
Cc1cnc(OCC(=O)N[C@H]2CC[C@](F)(CCN3CCc4ccc(OCC(F)F)nc4CC3)CC2)cn1 [I′-53] | 0.32 nM |  |  | > 2200 nM
Cc1ncc(OCC(=O)N[C@H]2CC[C@H](CCN3CCc4nc(OCC(F)F)sc4CC3)CC2)cn1 [I′-54] | 0.32 nM |  |  | 1600 nM
Cc1ncc(CC(=O)N[C@H]2CC[C@H](CCN3CCc4nc(OCC(C)(F)F)sc4CC3)CC2)cn1 [I′-55] | 0.16 nM |  |  | 950 nM
Cc1ncc(CC(=O)N[C@H]2CC[C@H](CCN3CCc4nc(OCC(F)F)sc4CC3)CC2)cn1 [I′-56] | 0.3 nM |  |  | 1400 nM
Cc1ncc(CC(=O)N[C@H]2CC[C@H](CCN3CCc4cc(F)c(OCC(F)F)nc4CC3)CC2)o1 [I′-57] | 0.52 nM |  |  | > 2200 nM
